Results on six compounds are retold here after patent US20110223630A1, “METHOD FOR SCREENING FOR COMPOUNDS THAT INHIBIT NEURODEGENERATION” (priority 2008, published 2011).

Test [1] relates to sensory neurons. Put plainly: NGF deprivation assay in Campenot Chambers, local sensory axon degeneration (TUJ1 stain). The format is cell-based, mouse. The method, then:
Materials and methods used to generate the data shown in this figure are as follows. To examine whether ligand is required for DR6 function in sensory axonal degeneration, a compartmented culture analysis of sensory axon growth and degeneration was carried out as follows. A Campenot nerve cell chamber system was used to isolate neuronal processes (axons) from the cell bodies in different compartments (separate fluid environments), analogous to neuronal cell bodies in one location of the nervous system projecting their axons to a distal target in another location. The assay was carried out as originally described by Campenot (Campenot et al., J. Neurosci. 11(4): 1126-39 (1991)) with the following modifications. Briefly, 35-mm tissue culture dishes were coated with PDL/Laminin and scratched with a pin rake (Tyler Research) to generate tracks, as illustrated for example in FIGS. 1 and 4 of Campenot et al., supra. […]
To trigger local axonal degeneration, NGF-containing medium from axonal compartments was substituted with neurobasal medium with an NGF blocking antibody (anti-NGF, Genentech, Inc., 20 ug/ml). Zero hours, 6 hours, or 24 to 48 hours following NGF deprivation, sensory neurons were fixed in 4% PFA for 30 minutes at room temperature and processed for immunofluorescence staining with axonal marker TUJ-1 (Covance, 1:500 dilution) to visualize degenerating axons by fluorescence microscopy (FIG. 11B) (as above described in Example 7). […]
To examine whether ligand is required for DR6 function in axonal degeneration program triggered by NGF withdrawal, 30 μg/ml of hDR6-ECD-Fc immunoadhesin protein (described in Example 3 above) or 30 μg/ml of a control Fc (Genentech, Inc.) was included together with anti-NGF treatment in axonal compartments of Campenot Chambers. Zero to 24 hours after NGF deprivation, axons in Campenot Chambers were fixed with 4% PFA/PBS and visualized by immuno-fluorescence staining with TUJ-1 (1:500, Covance)/secondary antibody conjugated to a fluorescence group Alexa 488 (Molecular Probes, BD) (FIG. 11B). […]

Test [2] relates to DR6-AP binding sites on BAX null sensory axons. Put plainly: In situ DR6-AP sensory axon binding assay after NGF withdrawal. In kind it is cell-based, mouse. The settings on record: OM99-2 1 uM; BAX null sensory axons E12.5. The method, then:
For the in situ DR6-AP sensory axon binding assay, either wild-type or Bax null sensory explants were cultured in Neurobasal medium/B27 (Invitrogen) as outlined in the Examples 7-8 above, with 50 ng/ml NGF (Roche). Two days post-plating, DRG explants were either left untreated or deprived from NGF as described above in Examples 7-8. Bax inhibitory peptide was added where indicated on FIG. 12B (10 uM, Bax-V5, Tocris). Twelve hours post-NGF deprivation, DRG explants were washed twice with the binding buffer (HBSS, Gibco Cat. No. 14175-095, with 0.2% BSA, 0.1% NaN3, 5 mM CaCl2, 1 mM MgCl2, 20 mM HEPES, pH=7.0). AP binding assay was then carried out by making a 1:1 mixture of DR6-AP conditioned medium and the binding buffer (or control AP conditioned medium and the binding buffer), which was applied directly to DRG explants in 8-well culture slides (Becton, Dickinson and Company) and incubated for 90 minutes at room temperature.
Following the incubation, unbound DR6-AP proteins were washed away by rinsing DRG explants five times with the binding buffer. DRG explants were then fixed with 3.7% formaldehyde diluted in PBS, for 12 minutes at room temperature. The remaining formaldehyde was removed by rinsing DRG explants 3 times with HBS buffer (20 mM HEPES pH=7.0, 150 mM NaCl). Endogenous AP activity was blocked by heat inactivation at 65° C. in HBS buffer for 30 minutes. […]

The subject of test [3] is commissural neurons. Put plainly: Dorsal spinal cord (commissural explant) survival assay. The format is cell-based, rat. The method, then:
To examine functional roles of DR6 in axonal degeneration and programmed cell death of commissural neurons, an RNAi-based dorsal spinal cord survival assay (Kennedy et al., Cell, 78:425-435 (1994); Wang et al., supra, 1999) was conducted (see FIG. 3). E13 rat or E11.5 mouse embryos were placed in L15 medium (Gibco) and siRNAs (IDT) together with green fluorescent protein (“GFP”)-encoding plasmids were injected into the neural tubes. The siRNAs and plasmids were then delivered to dorsal progenitor cells by electroporation. Dorsal spinal cord explants were dissected out, embedded into a 3D-collagen gel matrix, and cultured in Opti-MEM/F12 medium (Invitrogen) with recombinant netrin-1 ([…]) and 5% horse serum (Sigma) at 37° C. in a 5% CO2 environment. Within 16 hours in response to chemo-attractant netrin-1, commissural axons grow out of the explant into the collagen matrix gel (Kennedy et al., supra, 1994). Commissural axons are visualized by GFP fluorescence by observation using an inverted microscope. […]
Control non-targeting, or targeting DR6 siRNA #2, or targeting DR6 siRNA #3 (IDT) together with either wild-type or mis-match DR6 cDNA and GFP-encoding plasmids. […] Within 16 hours in response to chemo-attractant netrin-1 commissural axons grow out of the explant into the collagen matrix gel (Kennedy et al., Cell 78:425-435 (1994). Commissural axons are visualized by GFP fluorescence by observation using inverted microscope. After 48 hours in culture in the absence of trophic factor support derived from the floorplate, commissural neurons undergo programmed cell death and their axons degenerate (Wang et al., Nature, 401:765-769 (1999)) (FIG. 4B). However, the axonal degeneration program can be blocked by introduction of a targeting DR6-specific siRNA #3 (FIG. 4B). […]
A dorsal spinal cord survival assay (as described in Example 2 above) was conducted using anti-DR6 antibodies. Microscopic observation (using green fluorescence channel for GFP) was employed to visualize commissural axons. […]

The conditions of test [4]: patients taking stable doses of Donepezil; changes from baseline; cited from earlier work.

Residues, ends and D or L forms follow the SMILES beside them. *: point of attachment. Cbz = O=C(OCc1ccccc1)*; CH2F = FC*

Consider OM99-2, for which the “sensory axonal degeneration in absence of NGF” value in test [1] (BACE inhibitor 1 uM, FIG. 15C) is recorded as “blocked”. Moreover, the “disappearance of DR6-AP binding sites from sensory axons following NGF withdrawal” value in test [2] is “can block the disappearance of DR6-AP binding sites”. Turning to “5′-CAAUAGGUCAGGAAGAUGGCU-3′ [DR6-specific siRNA #3]”, in test [3] (DR6 siRNA electroporated with GFP plasmid, 48 hours in culture without floorplate trophic support), the “axonal degeneration of commissural neurons” value is listed as “blocked”. Take (L)-HIV-TAT48-57-PP-JBD20 [L-JNK-I]: in test [3] (peptide JNK inhibitor at 1 μM), the “axonal degeneration of commissural neurons” value is listed as “partially blocked axonal degeneration”. As for “hDR6-ECD-Fc: human DR6 extracellular domain sequence fused with Fc, SEQ ID NO: 4”, in test [3] (48 hours, 30 μg/ml or 10 μg/ml hDR6-ECD-Fc), the commissural axon degeneration entry is “delayed”. Also, in test [1] (30 μg/ml in axonal compartment with anti-NGF, 0, 6 and 24 hours, vs control Fc), the “sensory axonal degeneration induced by NGF withdrawal” value is “delayed sensory axonal degeneration”.

Take `CC12CC3CC(C)(C1)CC(N)(C3)C2` [Memantine]: the “outcome measures SIB, ADCS-ADL19, CIBIC-Plus, NPI, BGP vs placebo” value in test [4] is on record as “exhibiting a benefit over placebo”. As for `CC[C@H](C)[C@H](NC(=O)OCc1ccccc1)C(=O)N[C@@H](CCC(=O)OC)C(=O)N[C@H](C(=O)N[C@@H](CC(=O)OC)C(=O)CF)[C@@H](C)O` [Z-IETD-FMK] (Cbz-IE(OMe)TD(OMe)-CH2F), the “sensory axonal degeneration after anti-NGF” value in test [1] (neurons cultured 5 days, then 24 hours, SP 600125 1 uM, Z-IETD-FMK 10 uM, Z-DEVD-FMK 10 uM) is listed as “delayed”.
